Experimental data reported in patent publication US12274761B2, “Compositions and methods to detect GLUA1 in brain and to identify the presence of GLUA1-mediated PTSD” (Neurovation Labs, Inc., priority 2016, dated 2025).
Entries after “also recorded” stand apart in the source; their conditions may differ.

Legend:
[1] = test system: GluA1 protein in the basolateral amygdala (BLA); test: Western blot of GluA1 protein in the BLA after SEFL trauma; assay type: in vivo; conditions: metyrapone given before the trauma, measured three weeks after the trauma, stressed rats
Experimental: FIG. 1A illustrates an experimental design for Stress-Enhanced Fear Learning (SEFL), a rodent model of PTSD.
(§1) FIGS. 1B-D depict representative Western blot images and graphs of relative optical density ratios (±standard error of the mean (SEM)) of GluA1, GluA2, and GluN1, respectively, and a glyceraldehyde 3-phosphate dehydrogenase (GAPDH) control. […] Glutamate receptor protein changes were measured three weeks after the initial trauma via Western blotting. While the GluA2 subunit of the AMPAR and the GluN1 subunit of the N-methyl-D-aspartate receptor (NMDAR) remained unchanged after trauma, GluA1 increased substantially.
(§2) FIG. 1A illustrates an experimental design using SEFL (7, 8). Protein levels were measured using Western blot, an analytical technique to detect specific proteins in tissue samples.
FIG. 1B depicts representative Western blot images of GluA1 and a control, GAPDH, from the BLA of stressed and unstressed rats, measured three weeks after the trauma.
Because GluA1 increases are observed weeks after the trauma, post-trauma GluA1 ASO infusions directly into the BLA prevented sensitized fear responses usually observed in SEFL (FIGS. 2A-E) (5). […] FIG. 2C depicts representative Western blot images of GluA1 and GAPDH from the BLA of stressed/MSO and stressed/ASO rats. […]

[2] = test system: GluN1 subunit of the N-methyl-D-aspartate receptor (NMDAR); test: Western blot of GluN1 protein in the BLA after SEFL trauma; assay type: in vivo; conditions: measured three weeks after the trauma; stressed and unstressed rats
Experimental: as §1, §2
FIG. 1D depicts representative Western blot images of GluN1 and GAPDH from the BLA of stressed and unstressed rats, measured three weeks after the trauma.

[3] = test system: GluA2 subunit of the AMPAR; test: Western blot of GluA2 protein in the BLA after SEFL trauma; assay type: in vivo; conditions: measured three weeks after the trauma; stressed and unstressed rats
Experimental: as §1, §2
FIG. 1C depicts representative Western blot images of GluA2 and GAPDH from the BLA of stressed and unstressed rats, measured three weeks after the trauma.

[4] = test system: Stress-Enhanced Fear Learning (SEFL); test: Stress-Enhanced Fear Learning (SEFL), a rodent model of PTSD: freezing in Context B; assay type: in vivo, rats
From the text: FIG. 1A illustrates an experimental design for Stress-Enhanced Fear Learning (SEFL), a rodent model of PTSD. FIG. 2A illustrates an abbreviated SEFL experimental design. […] FIG. 3A illustrates a SEFL experimental design. […] FIG. 2C depicts representative Western blot images of GluA1 and GAPDH from the BLA of stressed/MSO and stressed/ASO rats. FIG. 2D depicts mean GluA1: GAPDH optical density ratios (±SEM) from the BLA of stressed/MSO and stressed/ASO rats. […] FIG. 2E depicts mean (±SEM) percent freezing in Context B on Day 3. […] FIG. 3C depicts mean freezing (±SEM) in Context B on Day 3.

Row | Structure (SMILES) | GluA1: GAPDH optical density ratios in the BLA [1] | GluA1: GAPDH optical density ratios in the BLA ([1]; listed as metyrapone) | GluN1: GAPDH optical density ratios in the BLA (GluN1 levels) [2] | GluA2: GAPDH optical density ratios in the BLA (GluA2 levels) [3] | SEFL (stress-enhanced fear learning) ([4]; given before the trauma) | percent freezing in Context B on Day 3 (sensitized fear, SEFL) ([4]; intra-BLA infusion after the 15-shock stressor (post-trauma), compared with stressed controls, hydrobromide)
1 | CC(C)(C(=O)c1cccnc1)c1cccnc1 [Metyrapone] | prevented GluA1 increases and conferred levels to that of unstressed controls | GluA1 protein levels in the BLA were significantly higher in stressed rats than in unstressed rats and metyrapone-treated rats | Neither stress nor metyrapone had an effect on GluN1 levels | Neither stress nor metyrapone had an effect on GluA2 levels | effectively preventing SEFL | 
2 | Br.C[N+](C)(C)CCCCCNCC12CC3CC(CC(C3)C1)C2.[Br-] [IEM-1460, N,N,H,-Trimethyl-5-[(tricyclo[3.3.1.13,7]dec-1-ylmethyl)amino]-1-pentanaminiumbromide hydrobromide] |  |  |  |  |  | significantly reduces freezing in Context B; also recorded: attenuate SEFL
